# Where two headings read alike, the source gives them in different places. *1 amine or outer side, *2 acyl side, *3 side chain or, on linkers, in order; H or OH if unused. Where a SMILES comes first, the peptide text is derived from it. [ ]: non-standard residue; d: D form. The star is where a group is joined. X26 = O=C(CN1CC2CC(C1)N2*)OCc1ccccc1; X9 = O=C(CN1CC2CC(C1)N2[*:1])[*:2]; X28 = O=C(O)CCN(CCC(=O)O)*; X4 = O=C(O)CN1CC2CC(C1)N2*; Ac6c = NC1(C(=O)O)CCCCC1; Ac5c = NC1(C(=O)O)CCCC1; X10 = OCCN(CCO)*
# Columns and labels:
# [1] = target: T1, Kappa (κ) opioid receptors (KOR) (Homo sapiens, UniProt P41145); test: In vitro KOR agonistic activity, cAMP based functional assay; assay type: cell-based
# T1 construct: host or cells: unnamed cells grown in Ham's F-12 medium
# T1 sequence (P41145 whole entry): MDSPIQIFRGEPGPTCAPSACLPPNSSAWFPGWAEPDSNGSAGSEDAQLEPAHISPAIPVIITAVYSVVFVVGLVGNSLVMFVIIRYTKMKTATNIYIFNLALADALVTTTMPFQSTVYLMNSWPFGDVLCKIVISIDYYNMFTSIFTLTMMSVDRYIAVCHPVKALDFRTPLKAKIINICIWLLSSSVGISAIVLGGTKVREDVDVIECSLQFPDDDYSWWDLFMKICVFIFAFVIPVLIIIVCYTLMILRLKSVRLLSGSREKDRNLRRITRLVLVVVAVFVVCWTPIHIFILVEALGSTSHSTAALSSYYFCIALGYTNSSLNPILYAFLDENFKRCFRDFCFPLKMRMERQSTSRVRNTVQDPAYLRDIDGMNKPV
# Description: a) In Vitro (EC50) Determination, Using cAMP Based Functional Assay:
# In vitro, KOR agonistic activity of test compounds were assessed using cAMP based functional assay. A 96-well plate was seeded at the density of 30,000 cells/well in 100 μl/well of complete Ham's F-12 medium. After seeding, the plates were incubated overnight at 37° C., 5% CO2, in CO2 Incubator. Overnight medium was discarded and plate washed with 100 μl/well of sterile PBS. Then 90 μl of 0.1 mM IBMX containing 0.5% Fatty acid free BSA in plain HamsF12 was added to each well. This was allowed to incubate for 30 minutes at 37° C., 5% CO2. Forskolin 20 μM in 0.5% Fatty acid free BSA was added to each well and allowed to incubate at room temperature for 5 minutes. Dilution of test compounds was made at 200× in DMSO and then diluted 1:10 times in BSA containing plain HamsF12. Agonist (test compounds, in 10% DMSO) was added to each well (5 μl) and allowed to incubate for 20 minutes at 37° C., 5% CO2. After 20 minutes, media was aspirated from the wells and the wells were washed with 1×PBS. Cell lysis buffer 4× (Arbor Assays, Cat # X074-60 ML) was diluted 1:4 in MilliQ and 90 μl of this buffer was added per well. Cells were allowed to shake at 500 rpm, room temperature for 20 minutes. Cell lysate was collected in 1.5 ml eppendorf tubes and centrifuged at 13.2 k rpm, 4° C. for 15 minutes. 50 μl of the supernatant of cell lysate was then used for cAMP estimation by cAMP direct ELISA kit (Arbor Assays, Cat # K019-H5).
# [2] = test system: acetic acid induced writhing; test: Acetic acid-induced writhing model (antinociceptive activity); assay type: in vivo; details: acetic acid induced pain model, ICR mice (n = 6), iv
# Description: In Vivo (ED50) Determination, Using Acetic Acid-Induced Writhing Model
# The acetic acid induced writhing assay can detect antinociceptive activity for opioid drug, acting at peripheral, spinal and supraspinal levels. Animals were fasted 12 to 16 h prior testing. The nociceptive response (abdominal contractions or writhes) was induced by diluted acetic acid (0.6%, 10 ml/kg, for mice and 2.5%, 0.5 ml/rat) administered intraperitoneally (i.p.) at time 0 min.
# In mouse experiments, compounds were administered orally, intravenously (i.v.) or subcutaneously (s.c.). To determine the antinociceptive potency and efficacy, full dose-response curves were constructed with test compounds, given 5 min prior to acetic acid administration. The duration of action was determined by using increasing pretreatment time (5, 60, and 120 min.), prior to acetic acid administration, for a sub-maximally effective dose defined during the dose-response curve study. In rat experiments, compounds were administered orally, intravenously (i.v.) or subcutaneously (s.c.), 15 min prior to acetic acid administration. The number of writhes was counted over the 15 min period following acetic acid administration. A writhe is defined as a constriction of the abdominal area, often with extension of the hind legs. Percentage maximum possible effect (MPE) was calculated as: % MPE=100−[(No. of writhes in test compound treated animal/No. of writhes in vehicle treated animal)]×100. ED50 dose was determined using GraphPad Prism.
# [3] = cAMP based functional assay, forskolin stimulated, read-out: In-vitro EC50
# [4] = refers to Table-4, read-out: in vitro KOR agonistic activity EC50
SMILES,"EC50 [1, 3] [nM]","EC50 [1, 4] [nM]",In-vivo ED50 [2] [mpk]
CC(C)CC(NC(=O)C(Cc1ccccc1)NC(=O)C(N)Cc1ccccc1)C(=O)NC(CCCCN)C(=O)N1CC2=C(CN(CC(=O)O)C2)C1 (centres unmarked) [Compound 4],0.047,< 0.1,–
CC(C)CC(NC(=O)C(Cc1ccccc1)NC(=O)C(N)Cc1ccccc1)C(=O)NC(CCCCN)C(=O)N1CC2=C(CN(CC(N)=O)C2)C1 (centres unmarked) [Compound 5],0.009,< 0.1,0.07
CC(C)CC(NC(=O)C(Cc1ccccc1)NC(=O)C(N)Cc1ccccc1)C(=O)NC(CCCCN)C(=O)N1CC2=C(CN(C(=O)CO)C2)C1 (centres unmarked) [Compound 10],0.4,–,–
CC(C)CC(NC(=O)C(Cc1ccccc1)NC(=O)C(N)Cc1ccccc1)C(=O)NC(CCCCN)C(=O)N1CC2CNCC2C1 (centres unmarked) [Compound 13],–,–,1
CCOC(=O)CN1CC2CN(C(=O)C(CCCCN)NC(=O)C(CC(C)C)NC(=O)C(Cc3ccccc3)NC(=O)C(N)Cc3ccccc3)CC2C1 (centres unmarked) [Compound 15],0.007,< 0.1,0.1
CC(C)CC(NC(=O)C(Cc1ccccc1)NC(=O)C(N)Cc1ccccc1)C(=O)NC(CCCCN)C(=O)N1CC2CN(CC(=O)O)CC2C1 (centres unmarked) [Compound 16],0.004,< 0.1,0.1
"CC(C)CC(NC(=O)C(Cc1ccccc1)NC(=O)C(N)Cc1ccccc1)C(=O)NC(CCCCN)C(=O)N1CC2CN(CC(N)=O)CC2C1 (stereo not drawn) [Compound 17, H2N-Phe-Phe-Leu-Lys-Hpp-CONH2]",0.38,–,–
CC(C)CC(NC(=O)C(Cc1ccccc1)NC(=O)C(N)Cc1ccccc1)C(=O)NC(CCCCN)C(=O)N1CC2CN(CCO)CC2C1 (centres unmarked) [Compound 18],–,–,1
CC(C)CC(NC(=O)C(Cc1ccccc1)NC(=O)C(N)Cc1ccccc1)C(=O)NC(CCCCN)C(=O)N1CC2CN(S(C)(=O)=O)CC2C1 (centres unmarked) [Compound 19],–,–,0.28
CC(C)CC(NC(=O)C(Cc1ccccc1)NC(=O)C(N)Cc1ccccc1)C(=O)NC(CCCCN)C(=O)N1CC2CC(=O)CC2C1 (centres unmarked) [Compound 23],0.085,–,–
CC(C)CC(NC(=O)C(Cc1ccccc1)NC(=O)C(N)Cc1ccccc1)C(=O)NC(CCCCN)C(=O)N1CC2CC(CN)CC2C1 (centres unmarked) [Compound 26],0.22,–,–
CCOC(=O)C1CC2CN(C(=O)C(CCCCN)NC(=O)C(CC(C)C)NC(=O)C(Cc3ccccc3)NC(=O)C(N)Cc3ccccc3)CC2C1 (centres unmarked) [Compound 27],0.009,–,–
CC(C)CC(NC(=O)C(Cc1ccccc1)NC(=O)C(N)Cc1ccccc1)C(=O)NC(CCCCN)C(=O)N1C2CNCC1C2 (centres unmarked) [Compound 32],0.02,–,–
CC(C)CC(NC(=O)C(Cc1ccccc1)NC(=O)C(N)Cc1ccccc1)C(=O)NC(CCCCN)C(=O)N1C2CC1CN(C)C2 (centres unmarked) [Compound 33],0.009,–,–
"CC(C)CC(NC(=O)C(Cc1ccccc1)NC(=O)C(N)Cc1ccccc1)C(=O)NC(CCCCN)C(=O)N1C2CC1CN(Cc1ccccc1)C2 (centres unmarked) [Compound 34, N-(6-amino-1-(3-benzyl-3,6-diazabicyclo[3.1.1]heptan-6-yl)-1-oxohexan-2-yl)-2-(2-(2-amino-3-phenylpropanamido)-3-phenylpropanamido)-4-methylpentanamide]",0.088,–,–
CCOC(=O)CN1CC2CC(C1)N2C(=O)C(CCCCN)NC(=O)C(CC(C)C)NC(=O)C(Cc1ccccc1)NC(=O)C(N)Cc1ccccc1 (centres unmarked) [Compound 35],0.01,< 0.1,0.03
CC(C)CC(NC(=O)C(Cc1ccccc1)NC(=O)C(N)Cc1ccccc1)C(=O)NC(CCCCN)C(=O)N1C2CC1CN(CC(=O)O)C2 (centres unmarked) [Compound 36],0.015,< 0.1,0.04
CC(C)CC(NC(=O)C(Cc1ccccc1)NC(=O)C(N)Cc1ccccc1)C(=O)NC(CCCCN)C(=O)N1C2CC1CN(CC(N)=O)C2 (centres unmarked) [Compound 37],0.083,< 0.1,0.08
CC(C)CC(NC(=O)C(Cc1ccccc1)NC(=O)C(N)Cc1ccccc1)C(=O)NC(CCCCN)C(=O)N1C2CC1CN(CCO)C2 (centres unmarked) [Compound 38],–,–,0.04

SMILES,"EC50 [1, 3] [nM]","EC50 [1, 4] [nM]",In-vivo ED50 [2] [mpk]
CC(C)CC(NC(=O)C(Cc1ccccc1)NC(=O)C(N)Cc1ccccc1)C(=O)NC(CCCCN)C(=O)N1C2CC1CN(S(C)(=O)=O)C2 (centres unmarked) [Compound 39],–,–,0.18
NCCCCC(NC(=O)C1(NC(=O)C(Cc2ccccc2)NC(=O)C(N)Cc2ccccc2)CCCCC1)C(=O)N1C2CC1CN(CC(=O)O)C2 (centres unmarked) [Compound 41] (H-FF[Ac6c]K-X4; configuration not given here),0.015,–,–
NCCCCC(NC(=O)C1(NC(=O)C(Cc2ccccc2)NC(=O)C(N)Cc2ccccc2)CCCC1)C(=O)N1C2CC1CN(CC(=O)O)C2 (centres unmarked) [Compound 42] (H-FF[Ac5c]K-X4; configuration not given here),–,–,0.23
CC(C)CC(NC(=O)C(Cc1ccccc1)NC(=O)C(N)Cc1ccccc1)C(=O)NC(CCCCN)C(=O)N1C2CC1CN(CC(=O)OCc1ccccc1)C2 (centres unmarked) [Compound 49],0.016,–,–
NCCCCC(NC(=O)C1(NC(=O)C(Cc2ccccc2)NC(=O)C(N)Cc2ccccc2)CCCCC1)C(=O)N1C2CC1CN(CC(=O)OCc1ccccc1)C2 (centres unmarked) [Compound 50] (H-FF[Ac6c]K-X26; configuration not given here),0.008,–,–
CC(C)CC(NC(=O)C(Cc1ccccc1)NC(=O)C(N)Cc1ccccc1)C(=O)NC(CCCCN)C(=O)N1CC2CC(C1)N2 (centres unmarked) [Compound 51],0.012,–,–
CC(C)CC(NC(=O)C(Cc1ccccc1)NC(=O)C(C)(N)Cc1ccccc1)C(=O)NC(CCCCN)C(=O)N1CC2CC(C1)N2CC(=O)O (centres unmarked) [Compound 57],–,–,0.26
CC(C)CC(NC(=O)C(Cc1ccccc1)NC(=O)C(N)Cc1ccccc1)C(=O)NC(CCCCN)C(=O)N1CC2CC1CN2Cc1ccccc1 (centres unmarked) [Compound 62],–,–,0.31
CC(C)CC(NC(=O)C(Cc1ccccc1)NC(=O)C(N)Cc1ccc(O)cc1)C(=O)NC(CCCCN)C(=O)N1C2CC1CN(CC(=O)O)C2 (centres unmarked) [Compound 90] (H-YFLK-X4; configuration not given here),–,–,0.98
NCCCCC(NC(=O)C1(NC(=O)C(Cc2ccccc2)NC(=O)C(N)Cc2ccc(O)cc2)CCCCC1)C(=O)N1C2CC1CN(CC(=O)O)C2 (centres unmarked) [Compound 92] (H-YF[Ac6c]K-X4; configuration not given here),0.018,–,–
CC(C)CC(NC(=O)C(Cc1ccccc1)NC(=O)C(N)Cc1ccccc1)C(=O)NC(CCCCN)C(=O)N1C2CC1CN(C(=O)CCCCCN)C2 (centres unmarked) [Compound 93],–,–,0.11
CC(C)CC(NC(=O)C(Cc1ccccc1)NC(=O)C(N)Cc1ccccc1)C(=O)NC(CCCCN)C(=O)N1C2CC1CN(C(=O)C(N)CO)C2 (centres unmarked) [Compound 97],–,–,0.42
CC(C)CC(NC(=O)C(Cc1ccccc1)NC(=O)C(N)Cc1ccccc1)C(=O)NC(CCCCN)C(=O)N1C2CC1CN(CC(=O)N(CC(=O)O)CC(=O)O)C2 (centres unmarked) [Compound 99],0.016,–,–
CC(C)CC(NC(=O)C(Cc1ccccc1)NC(=O)C(N)Cc1ccccc1)C(=O)NC(CCCCN)C(=O)N1C2CC1CN(CC(=O)N(CCC(=O)O)CCC(=O)O)C2 (centres unmarked) [Compound 100] (H-FFLK[X9]-X28; configuration not given here),0.015,–,–
CC(C)CC(NC(=O)C(Cc1ccccc1)NC(=O)C(N)Cc1ccccc1)C(=O)NC(CCCCN)C(=O)N1C2CC1CN(CC(=O)N(CCO)CCO)C2 (centres unmarked) [Compound 101] (H-FFLK[X9]-X10; configuration not given here),0.012,–,–
CC(C)CC(NC(=O)C(Cc1ccccc1)NC(=O)C(N)Cc1ccccc1)C(=O)NC(CCCCN)C(=O)N1C2CC1CN(C(=O)CN(CC(=O)O)CC(=O)O)C2 (centres unmarked) [Compound 102],0.012,–,–
CC(C)CC(NC(=O)C(Cc1ccccc1)NC(=O)C(N)Cc1ccccc1)C(=O)NC(CCCCN)C(=O)N1C2CC1CN(CC(=O)NC(CCC(=O)O)C(=O)O)C2 (centres unmarked) [Compound 104] (H-FFLK[X9]E-OH; configuration not given here),–,–,0.07
CC(C)CC(NC(=O)C(Cc1ccccc1)NC(=O)C(N)Cc1ccccc1)C(=O)NC(CCCCN)C(=O)N1C2CCC1CC(O)C2 (centres unmarked) [Compound 105],0.002,–,–

# From patent publication US10550150B2, “Short-chain peptides as Kappa (κ) opioid receptors (KOR) agonist” (CADILA HEALTHCARE LIMITED, priority 2015, dated 2020)
